Like-named read-outs stand apart in the source and are kept apart here.
Experiments:
[1] = system: plasma inosine; assay: plasma inosine in Lewis rats after intraperitoneal injection (HPLC); type: in vivo; conditions: 30 mg twice per day, aqueous carrier with ten percent DMSO, vs vehicle controls
Experimental: A pharmaceutical composition for intraperitoneal injection is prepared for testing the compound (IA). An intraperitoneal injection solution containing the compound (IA) is dissolved in an aqueous carrier that contains ten percent DMSO.
The compound (IA) is intraperitoneally injected into Lewis Rats via the test composition of Example 21 to provide 30 mg of the compound (IA), with an injection given twice per day. Controls are used, which receive only the vehicle. At specific times after administration, the animals are sacrificed and plasma samples are prepared. The plasma is extracted with cold 0.5 N HClO4 and neutralized with solid NH4 HCO3. After removal of perchlorate salts, the extract is subjected to HPLC on a reversed phase column (Spherisorb ODSI).
Compounds prepared as in Examples 10-20 are each made into a pharmaceutical formulation in accordance with the preparation of Example 21 and the resultant injectable solutions are tested in accordance with the procedure of Example 22.
A pharmaceutical composition for intraperitoneal injection is prepared for testing the compound (IC). An intraperitoneal injection solution is prepared containing the compound (IC) is dissolved in an aqueous carrier that contains ten percent DMSO. […]

[2] = molecular target: T1, purine nucleoside phosphorylase (PNP) (Bos taurus, UniProt P55859); assay: biochemical; type: biochemical, calf
T1 construct: using calf spleen as the enzyme source; from tissue; host or cells: calf spleen
T1 sequence (P55859 1-289): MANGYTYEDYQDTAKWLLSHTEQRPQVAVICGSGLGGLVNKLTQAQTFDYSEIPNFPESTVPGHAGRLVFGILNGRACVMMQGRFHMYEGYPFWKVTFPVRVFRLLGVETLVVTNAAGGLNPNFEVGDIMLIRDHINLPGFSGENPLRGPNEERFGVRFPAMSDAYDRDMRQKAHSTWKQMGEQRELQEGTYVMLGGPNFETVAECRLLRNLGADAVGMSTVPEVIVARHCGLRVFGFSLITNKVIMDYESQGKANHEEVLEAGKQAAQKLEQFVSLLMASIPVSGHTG
Experimental: The compound of Example 8 is tested for enzyme inhibition activity.

[3] = system: CCRF-CEM cells; assay: potentiation of the toxicity of 2'-deoxyguanosine (d-Guo) in CCRF-CEM cells; type: cell-based; conditions: read-out: IC50, concentration of the compound required to reduce the increase in cell number between 0 and 72 hours to 50% of that of control cultures, with d-Guo at 5.62 μM, RPMI-1640 medium
Experimental: CCRF-CEM cells are grown in RPMI-1640 medium. To a suspension cultures of these cells, d-Guo at a fixed concentration (5.62 μM) and the compound at varied concentrations are added and the number of cells are determined in a Coulter counter 24, 48, and 72 hours thereafter.

[4] = 1 mM phosphate, calf spleen enzyme, read-out: PNP activity (IC50) at 1 mM phosphate
[5] = read-out: PNP activity (IC50) at 50 mM phosphate, 50 mM phosphate, calf spleen enzyme

Compound | increase in plasma inosine [1] | IC50 [2, 4] [nM] | IC50 [2, 5] [nM] | other results
Nc1nc2c(CC3C4CC5CC(C4)CC3C5)c[nH]c2c(=O)[nH]1 (stereo not shown) [Example 8, 2-amino-7-(2-adamantylmethyl)-3H,5H-pyrrolo[3,2-d]pyrimidin-4-one] | significant increase in plasma inosine | 90 | 2500 | 
Nc1nc2c(CC3CCCC3)c[nH]c2c(=O)[nH]1 [Example 41, 2-amino-7-(cyclopentylmethyl)-3H,5H-pyrrolo[3,2-d]-pyrimidin-4-one] | significant increase in plasma inosine | 29 | 1800 | 
Nc1nc2c(CC3CCCCC3)c[nH]c2c(=O)[nH]1 [Example 56, 2-amino-7-(cyclohexylmethyl) -3H,5H-pyrrolo[3,2-d]-pyrimidin-4-one] |  |  |  | IC50 [3]: 2000 nM
CC1CCCC(Cc2c[nH]c3c(=O)[nH]c(N)nc23)C1 (stereo not shown) [Example 59, 2-amino-7-(3-methylcyclohexylmethyl)-3H,5H-pyrrolo[3,2-d]pyrimidin-4-one] |  |  |  | IC50 ([2]; read-out: PNP activity (IC50) at 1 mM phosphate): 25 nM
Nc1nc2c(CC3CCCCCC3)c[nH]c2c(=O)[nH]1 [Example 70, 2-amino-7-(cycloheptylmethyl)-3H,5H-pyrrolo[3,2-d]pyrimidin-4-one] |  | 30 |  | IC50 ([2]; PNP activity (IC50) at 50 mM phosphate, 50 mM phosphate, calf spleen enzyme): 840 nM

Source: patent publication US5008265A, “2-amino-7-(alicyclomethyl)-3H,5H,-pyrrolo[3,2-d]pyrimidin-4-ones and pharmaceutical uses and compositions containing the same” (BioCryst, Inc., priority 1989, dated 1991)
